The values below come from patent US20240279241A1, “PYRIDO[4,3-D]PYRIMIDINE COMPOUNDS CAPABLE OF INHIBITING KRAS MUTANT PROTEINS” (Redx Pharma PLC, priority 2021, published 2024).

One assay deals with T1, KRAS G12D (Homo sapiens, UniProt P01116, G12D).
T1 construct: Recombinant human RAS protein (2 nM)
Briefly: HTRF nucleotide exchange assay (NEA), KRAS G12D. Format: biochemical. Conditions: recombinant human KRAS G12D aa1-188, 2 nM; lowest class = % inhibition at 10 μM. As to the method:
(§1) The capacity of compounds to bind KRAS G12D, other KRAS mutants and wildtype RAS isoforms was quantified using a HTRF nucleotide exchange assay. Recombinant human RAS protein (2 nM; aa1-188 KRAS WT, HRAS WT, NRAS WT, or KRAS containing the containing the G12D, G13D or Q61H amino acid substitutions, or 4 nM KRAS; aa1-188 containing the G12V, G12C, G12A or G12S amino acid substitution, an N-terminal 6×His-tag and leader sequence), and 2 nM Europium-labeled anti-6×His antibody were mixed in assay buffer (10 mM HEPES pH7.3, 150 mM NaCl, 5 mM MgCl2, 0.05% BSA, 0.0025% NP-40 and 100 mM KF) with various concentrations of compound in a 384-well plate and a volume of 5 uL. After a 60-minute incubation at room temperature, 5 ul of 200 nM EDA-GTP-DY647P1 (diluted in assay buffer) was added to the plate. Following 30-minute incubation at room temperature, time-resolved fluorescence was measured on a PerkinElmer Envision plate reader. DMSO (0.3%) and unlabeled […] (1 μM) or equivalent tool compound were used to generate the Max and Min assay signals, respectively. Data was analysed using a four-parameter logistic model to calculate IC50 values, with at least two independent replicates were performed for each compound.

A further assay concerns the target T2, KRAS WT (Homo sapiens, UniProt P01116).
T2 construct: Recombinant human RAS protein (2 nM); aa1-188 KRAS WT
The assay is described as follows: HTRF nucleotide exchange assay (NEA), KRAS WT. Format: biochemical. As to the method: as §1

The structures appear in SMILES notation. Read-outs that look alike come from different tables or passages of the source.

T2 sequence (P01116 1-188 isoform P01116-2): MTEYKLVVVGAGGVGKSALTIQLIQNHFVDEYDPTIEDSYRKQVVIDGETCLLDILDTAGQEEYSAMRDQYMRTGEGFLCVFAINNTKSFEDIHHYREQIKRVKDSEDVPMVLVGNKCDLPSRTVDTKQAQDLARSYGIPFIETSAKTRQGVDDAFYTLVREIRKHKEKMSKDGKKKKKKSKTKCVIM
T1 sequence (P01116 1-188 isoform P01116-2 G12D): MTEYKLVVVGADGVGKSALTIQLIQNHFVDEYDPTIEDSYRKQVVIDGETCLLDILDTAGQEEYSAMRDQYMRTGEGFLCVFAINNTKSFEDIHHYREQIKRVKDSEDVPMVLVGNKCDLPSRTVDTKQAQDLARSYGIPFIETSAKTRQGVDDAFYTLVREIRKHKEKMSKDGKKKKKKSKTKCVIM

Turning to `C#Cc1c(F)ccc2cc(O)cc(-c3ncc4c(N5CCNC(=O)CC5)nc(OC[C@@]56CCCN5C[C@H](F)C6)nc4c3F)c12` (relative stereo) [Example 87, 1-[7-(8-ethynyl-7-fluoro-3-hydroxy-1-naphthyl)-8-fluoro-2-[[trans-2-fluoro-1,2,3,5,6,7-hexahydropyrrolizin-8-yl]methoxy]pyrido [4,3-d]pyrimidin-4-yl]-1,4-diazepan-5-one], the IC50 at KRAS G12D and on KRAS WT was ≤ 10 nM each time.

With `Nc1nc2c(-c3ncc4c(N5CCCOCC5)nc(OC[C@@]56CCCN5C[C@H](F)C6)nc4c3F)cccc2s1` (relative stereo) [Example 94, 4-[8-fluoro-4-(1,4-oxazepan-4-yl)-2-[[trans-2-fluoro-1,2,3,5,6,7-hexahydropyrrolizin-8-yl]methoxy]pyrido[4,3-d]pyrimidin-7-yl]-1,3-benzothiazol-2-amine], the concentration for half-maximal inhibition (IC50) on KRAS G12D and on KRAS WT was 100 to 10000 nM throughout.

Take `COCCNc1nc(OCC23CCCN2CCC3)nc2c(F)c(-c3cc(O)cc4ccccc34)ncc12` [Example 12]: the 50% inhibitory concentration (IC50) at KRAS G12D and against KRAS WT was 100 to 10000 nM throughout.

For the molecule `Oc1cc(-c2ncc3c(NC4CCOCC4)nc(OCC45CCCN4CCC5)nc3c2F)c2ccccc2c1` [Example 15, 4-[8-fluoro-2-(1,2,3,5,6,7-hexahydropyrrolizin-8-ylmethoxy)-4-(tetrahydropyran-4-ylamino)pyrido[4,3-d]pyrimidin-7-yl]naphthalen-2-ol], the IC50 at KRAS G12D and against KRAS WT was 100 to 10000 nM in each case.

`COC1CCN(c2nc(OCC34CCCN3CCC4)nc3c(F)c(-c4cc(O)cc5ccccc45)ncc23)CC1` [Example 21, 4-[8-fluoro-2-(1,2,3,5,6,7-hexahydropyrrolizin-8-ylmethoxy)-4-(4-methoxy-1-piperidyl)pyrido[4,3-d]pyrimidin-7-yl]naphthalen-2-ol]: the IC50 on KRAS G12D and against KRAS WT was 100 to 10000 nM each time.

For `CN(c1nc(OCC23CCCN2CCC3)nc2c(F)c(-c3cc(O)cc4ccccc34)ncc12)C1CCOCC1` [Example 23, 4-[8-fluoro-2-(1,2,3,5,6,7-hexahydropyrrolizin-8-ylmethoxy)-4-[methyl(tetrahydro-pyran-4-yl)amino]pyrido[4,3-d]pyrimidin-7-yl]naphthalen-2-ol], the IC50 at KRAS G12D and against KRAS WT was 100 to 10000 nM throughout.

`COCCCNc1nc(OCC23CCCN2CCC3)nc2c(F)c(-c3cc(O)cc4ccccc34)ncc12` [Example 29, 4-[8-fluoro-2-(1,2,3,5,6,7-hexahydropyrrolizin-8-ylmethoxy)-4-(3-methoxypropylamino)pyrido[4,3-d]pyrimidin-7-yl]naphthalen-2-ol]: the IC50 on KRAS G12D was 100 to 10000 nM; at KRAS WT (recombinant human KRAS WT aa1-188, 2 nM, lowest class = % inhibition at 10 μM) it was 100 to 10000 nM.

As to `CC(C)OCCCNc1nc(OCC23CCCN2CCC3)nc2c(F)c(-c3cc(O)cc4ccccc34)ncc12` [Example 30, 4-[8-fluoro-2-(1,2,3,5,6,7-hexahydropyrrolizin-8-ylmethoxy)-4-(3-isopropoxypropyl-amino)pyrido[4,3-d]pyrimidin-7-yl]naphthalen-2-ol], the IC50 on KRAS G12D and against KRAS WT was 100 to 10000 nM each time.

Consider `Oc1cc(-c2ncc3c(NC4CCCCC4)nc(OCC45CCCN4CCC5)nc3c2F)c2ccccc2c1` [Example 35, 4-[4-(cyclohexylamino)-8-fluoro-2-(1,2,3,5,6,7-hexahydropyrrolizin-8-ylmethoxy)pyrido [4,3-d]pyrimidin-7-yl]naphthalen-2-ol], for which the 50% inhibitory concentration (IC50) on KRAS G12D and against KRAS WT was 100 to 10000 nM in each case.

On to `Oc1cc(-c2ncc3c(N4CC5COCC5C4)nc(OCC45CCCN4CCC5)nc3c2F)c2ccccc2c1` (centres unmarked) [Example 37, 4-[4-(1,3,3a,4,6,6a-hexahydrofuro[3,4-c]pyrrol-5-yl)-8-fluoro-2-(1,2,3,5,6,7-hexahydropyrrolizin-8-ylmethoxy)pyrido [4,3-d]pyrimidin-7-yl]naphthalen-2-ol], for which the half-inhibitory concentration (IC50) on KRAS G12D and on KRAS WT was 100 to 10000 nM each time.

With `OCCCNc1nc(OCC23CCCN2CCC3)nc2c(F)c(-c3cc(O)cc4ccccc34)ncc12` [Example 39, 4-[8-fluoro-2-(1,2,3,5,6,7-hexahydropyrrolizin-8-ylmethoxy)-4-(3-hydroxypropylamino)pyrido[4,3-d]pyrimidin-7-yl]naphthalen-2-ol], the IC50 on KRAS G12D and against KRAS WT was 100 to 10000 nM each time.

As to `CN(C)C(=O)CCNc1nc(OCC23CCCN2CCC3)nc2c(F)c(-c3cc(O)cc4ccccc34)ncc12` [Example 40, 3-[[8-fluoro-2-(1,2,3,5,6,7-hexahydropyrrolizin-8-ylmethoxy)-7-(3-hydroxy-1-naphthyl)pyrido[4,3-d]pyrimidin-4-yl]amino]-N,N-dimethyl-propanamide], the 50% inhibitory concentration (IC50) on KRAS G12D and at KRAS WT was 100 to 10000 nM each time.

With `COC1CCCN(c2nc(OCC34CCCN3CCC4)nc3c(F)c(-c4cc(O)cc5ccccc45)ncc23)C1` (centres unmarked) [Example 42, 4-[8-fluoro-2-(1,2,3,5,6,7-hexahydropyrrolizin-8-ylmethoxy)-4-(3-methoxy-1-piperidyl)pyrido[4,3-d]pyrimidin-7-yl]naphthalen-2-ol], the half-inhibitory concentration (IC50) at KRAS G12D and at KRAS WT was 100 to 10000 nM in each case.

With `COCC(C)(C)CNc1nc(OCC23CCCN2CCC3)nc2c(F)c(-c3cc(O)cc4ccccc34)ncc12` [Example 43, 4-[8-fluoro-2-(1,2,3,5,6,7-hexahydropyrrolizin-8-ylmethoxy)-4-[(3-methoxy-2,2-dimethyl-propyl)amino]pyrido [4,3-d]pyrimidin-7-yl]naphthalen-2-ol], the IC50 at KRAS G12D and at KRAS WT was 100 to 10000 nM throughout.

As to `COCCC(C)Nc1nc(OCC23CCCN2CCC3)nc2c(F)c(-c3cc(O)cc4ccccc34)ncc12` (centres unmarked) [Example 44, 4-[8-fluoro-2-(1,2,3,5,6,7-hexahydropyrrolizin-8-ylmethoxy)-4-[(3-methoxy-1-methyl-propyl)amino]pyrido [4,3-d]pyrimidin-7-yl]naphthalen-2-ol], the half-maximal inhibitory concentration (IC50) on KRAS G12D and against KRAS WT was 100 to 10000 nM in each case.

On to `Oc1cc(-c2ncc3c(N4CCC5(CCOC5)C4)nc(OCC45CCCN4CCC5)nc3c2F)c2ccccc2c1` (centres unmarked) [Example 48, 4-[8-fluoro-2-(1,2,3,5,6,7-hexahydropyrrolizin-8-ylmethoxy)-4-(2-oxa-7-azaspiro[4.4]nonan-7-yl)pyrido [4,3-d]pyrimidin-7-yl]naphthalen-2-ol], for which the 50% inhibitory concentration (IC50) at KRAS G12D and at KRAS WT was 100 to 10000 nM each time.

Consider `Oc1cc(-c2ncc3c(N4CC5COCC(C5)C4)nc(OCC45CCCN4CCC5)nc3c2F)c2ccccc2c1` [Example 49, 4-[8-fluoro-2-(1,2,3,5,6,7-hexahydropyrrolizin-8-ylmethoxy)-4-(3-oxa-7-azabicyclo[3.3.1]nonan-7-yl)pyrido[4,3-d]pyrimidin-7-yl]naphthalen-2-ol], for which the half-maximal inhibitory concentration (IC50) at KRAS G12D and against KRAS WT was 100 to 10000 nM throughout.

With `Oc1cc(-c2ncc3c(N4CC5(CCCOC5)C4)nc(OCC45CCCN4CCC5)nc3c2F)c2ccccc2c1` [Example 53, 4-[8-fluoro-2-(1,2,3,5,6,7-hexahydropyrrolizin-8-ylmethoxy)-4-(6-oxa-2-azaspiro[3.5]nonan-2-yl)pyrido[4,3-d]pyrimidin-7-yl]naphthalen-2-ol], the IC50 on KRAS G12D and against KRAS WT was 100 to 10000 nM each time.

As to `COC(C)(C)CCNc1nc(OCC23CCCN2CCC3)nc2c(F)c(-c3cc(O)cc4ccccc34)ncc12` [Example 54, 4-[8-fluoro-2-(1,2,3,5,6,7-hexahydropyrrolizin-8-ylmethoxy)-4-[(3-methoxy-3-methyl-butyl)amino]pyrido [4,3-d]pyrimidin-7-yl]naphthalen-2-ol], the IC50 at KRAS G12D and on KRAS WT was 100 to 10000 nM in each case.

Take `Oc1cc(-c2ncc3c(N4CCn5nccc5C4)nc(OCC45CCCN4CCC5)nc3c2F)c2ccccc2c1` [Example 57, 4-[4-(6,7-dihydro-4H-pyrazolo[1,5-a]pyrazin-5-yl)-8-fluoro-2-(1,2,3,5,6,7-hexahydropyrrolizin-8-ylmethoxy)pyrido [4,3-d]pyrimidin-7-yl]naphthalen-2-ol]: the IC50 on KRAS G12D and against KRAS WT was 100 to 10000 nM throughout.

In the case of `Oc1cc(-c2ncc3c(N4CCn5cncc5C4)nc(OCC45CCCN4CCC5)nc3c2F)c2ccccc2c1` [Example 58, 4-[4-(6,8-dihydro-5H-imidazo[1,5-a]pyrazin-7-yl)-8-fluoro-2-(1,2,3,5,6,7-hexahydropyrrolizin-8-ylmethoxy)pyrido [4,3-d]pyrimidin-7-yl]naphthalen-2-ol], the IC50 at KRAS G12D and on KRAS WT was 100 to 10000 nM in each case.

`Oc1cc(-c2ncc3c(N4CCn5ccnc5C4)nc(OCC45CCCN4CCC5)nc3c2F)c2ccccc2c1` [Example 60, 4-[4-(6,8-dihydro-5H-imidazo[1,2-a]pyrazin-7-yl)-8-fluoro-2-(1,2,3,5,6,7-hexahydropyrrolizin-8-ylmethoxy)pyrido [4,3-d]pyrimidin-7-yl]naphthalen-2-ol]: the 50% inhibitory concentration (IC50) on KRAS G12D and on KRAS WT was 100 to 10000 nM throughout.
